Test results: publication PMC8704880, “Secondary Metabolites with Cytotoxic Activities from Streptomyces sp. BM-8 Isolated from the Feces of Equus quagga” (Molecules, 2021)
Like-named read-outs stand apart in the source and are kept apart here.

Experiments:
[1] = test system: A375 human malignant melanoma cell line; assay: MTT cytotoxicity assay, A375; format: cell-based; details: A-375, 48 h, read-out: IC50 (Means ± SD) A375
Experimental: (§1) The cytotoxic activity of the compounds on cancer cell lines, including HT-29, MCF-7, A375, K562, andNCM460cell lines, was measured using the MTT assay with a small modification. Briefly, cells were plated in 96-well plates at a density of 1 × 10^4 cells per well and allowed to grow overnight, then the medium was replaced with fresh RPMI1640 medium containing serially diluted compounds, and the cells were further incubated at 37 °C with 5% CO2 for 48 h. In this experiment, 1 and 6 were diluted into six different series concentrations from 10 μg/mL to 0.0097 μg/mL with 4× dilution each, while 2 and 3 were diluted from 500 μg/mL to 2.06 μg/mL, and 4, 5, and 7 from 300 μg/mL to 1.23 μg/mL with 3× dilution each. Paclitaxel, a clinical medication used as a positive control, was diluted from 100 μg/mL to 3.125 μg/mL with […]. HT-29, MCF-7, and A375 were all cultured in serum-free RPMI1640, while the K562 was cultured in DMEM containing FBS throughout this experiment. The culture medium was removed after the incubation, and then 100 μL of the 5 mg/mL MTT solution was added to each well and further incubated at 37 °C for 4 h. Finally, the supernatants were removed, and 150 μL of dimethyl sulfoxide (DMSO) was added to each well. After shaking the plates for 10 min at room temperature, the optical density value was measured spectrophotometrically at 570 nm using the microplate reader. The IC50 value (50% inhibitory concentration) was determined to evaluate the cell viability of these cell lines. In this experiment, Graph Pad Prism 5software (San Diego, CA, USA) was used to calculate the half inhibitory concentration (IC50) values. Each experiment was independently repeated at least three times and represented as the means ± standard deviation (SD).

[2] = test system: HT-29, MCF-7, A375, K562 and NCM460 cell lines; assay: MTT cytotoxicity assay, whole panel of cell lines; format: cell-based, human; details: for IC50: Homo sapiens, range over all tested cell lines, read-out: IC50 values ranging over the tested cell lines; for cytotoxic activity toward the tested cell lines (in words): all tested cell lines
Experimental: as §1

[3] = test system: MCF-7 human breast cancer cell line; assay: MTT cytotoxicity assay, MCF-7; format: cell-based; details: MCF7, 48 h, read-out: IC50 (Means ± SD) MCF-7
Experimental: as §1

[4] = test system: K562 human chronic myeloid leukemia cell line; assay: MTT cytotoxicity assay, K562; format: cell-based; details: 48 h, read-out: IC50 (Means ± SD) K562
Experimental: as §1

[5] = test system: HT-29 human colon cancer cell line; assay: MTT cytotoxicity assay, HT-29; format: cell-based; details: 48 h, read-out: IC50 (Means ± SD) HT-29
Experimental: as §1

[6] = test system: NCM460 human normal colon epithelial cell line; assay: MTT cytotoxicity assay, NCM460; format: cell-based; details: 48 h, read-out: IC50 (Means ± SD) NCM460
Experimental: as §1

[7] = medium containing FBS, NA = not active

Compound | IC50 ([1]; medium without FBS) [µM] | IC50 [2] [µM] | IC50 ([3]; medium without FBS) [µM] | IC50 [4, 7] [µM] | IC50 ([5]; medium without FBS) [µM] | IC50 ([6]; normal colon epithelial cells) [µM] | cytotoxic activity toward the tested cell lines (in words) [2] | IC50 ([1]; positive control) [µM] | IC50 ([3]; positive control) [µM] | IC50 ([4]; positive control) [µM] | IC50 ([5]; positive control) [µM] | IC50 ([6]; positive control) [µM]
CCCCCCCCCCOC(=O)[C@@H](C)C1CCC(C[C@@H](C)O)O1 (stereo partly drawn) [Compound 11] | 24.29 ± 0.03 | 24.3 to 44.2 | 34.1 ± 1.87 | 38.2 ± 0.7 | 43.2 ± 2.84 | 44.2 ± 0.64 | – | – | – | – | – | –
CCCCCCCCCCCCCCOC(=O)[C@@H](C)C1CCC(C[C@H](O)CC)O1 (stereo partly drawn) [Compound 12] | 127 ± 6.65 | – | 485.6 ± 3.18 | 187 ± 4.57 | 209 ± 3.25 | 150 ± 4.03 | – | – | – | – | – | –
CCCCCCCCCCCCCCCCCCOC(=O)[C@@H](C)C1CCC(C[C@H](O)CC)O1 (stereo partly drawn) [Compound 13] | 217.6 ± 0.99 | – | 362.4 ± 0.96 | 313 ± 3.29 | 322 ± 4.17 | 299.3 ± 1.77 | – | – | – | – | – | –
CC[C@@H](O)CC1CCC([C@H](C)C(=O)OCc2ccccc2)O1 (stereo partly drawn) [Compound 14] | 89.9 ± 1.09 | 21.1 to 89.9 | 111 ± 3.89 | 41.4 ± 2.84 | 73.2 ± 1.05 | 21.1 ± 3.66 | broad toxicity | – | – | – | – | –
CC[C@@H](O)CC1CCC([C@H](C)C(=O)Oc2ccc(C=O)cc2OC)O1 (stereo partly drawn) [Compound 15] | 175 ± 6.11 | – | – | 175 ± 3.28 | 531 ± 5.46 | – | – | – | – | – | – | –
CC[C@@H](O)CC1CCC([C@H](C)C(=O)Oc2ccc(-c3ccccc3)cc2)O1 (stereo partly drawn) [Compound 16] | 67.32 ± 0.25 | – | 156 ± 3.56 | 105 ± 2.58 | 165.1 ± 1.23 | 110 ± 1.36 | – | – | – | – | – | –
C[C@H](C(=O)N1CCCCC1)C1CCC(C[C@@H](C)O)O1 (stereo partly drawn) [Compound 17] | 199.1 ± 1.9 | – | 390 ± 10 | 339 ± 1.23 | 563 ± 7.35 | 180 ± 7.88 | – | – | – | – | – | –
CC[C@@H](O)CC1CCC([C@H](C)C(=O)Nc2ccccc2N)O1 (stereo partly drawn) [Compound 18] | 108 ± 5.22 | – | 302.4 ± 1.83 | 402.9 ± 0.69 | 235.7 ± 1.31 | 55.7 ± 7.65 | broad toxicity | – | – | – | – | –
CC[C@@H](O)CC1CCC([C@H](C)C(=O)Nc2nc3ccccc3s2)O1 (stereo partly drawn) [Compound 19] | 128.5 ± 0.48 | – | 270.3 ± 1.09 | – | 169 ± 4.2 | 80.1 ± 3.82 | – | – | – | – | – | –
CCC[C@H](CC1CCC([C@H](C)C(=O)O)O1)O[Si](C)(C)C(C)(C)C (stereo partly drawn) [Compound 20] | 215 ± 0.76 | – | 284.3 ± 1.24 | 323 ± 5.94 | 356 ± 7.67 | 37 ± 1.39 | broad toxicity | – | – | – | – | –
CC(=O)O[C@H]1C(=O)[C@@]2(C)[C@H]([C@H](OC(=O)c3ccccc3)[C@]3(O)C[C@H](OC(=O)[C@H](O)[C@@H](NC(=O)c4ccccc4)c4ccccc4)C(C)=C1C3(C)C)[C@]1(OC(C)=O)CO[C@@H]1C[C@@H]2O [Paclitaxel, reference compound] | – | – | – | – | – | – | – | 0.0458 ± 0.00179 | 0.0138 ± 0.00212 | 0.00931 ± 0.00188 | 0.00569 ± 0.00132 | 0.0182 ± 0.00234
